Assay results as given in patent publication US20030055065A1, “Tricyclic amide and urea compounds useful for inhibition of G-protein function and for treatment of proliferative diseases” (priority 1993, published 2003).
“And” between values parts separate entries of the source, which are not always exact repeats. Identical values can stand only once. Like-named read-outs stand apart in the source and are kept apart here.

Key:
[1] = biological target: T1, farnesyl protein transferase (FPT), partially purified from rat brain (Rattus norvegicus, UniProt Q02293+Q04631); test: Inhibition of farnesyl protein transferase (transfer of [3H]farnesyl to Ras-CVLS); assay type: biochemical; conditions: read-out: FPT IC50
T1 construct: were partially purified from rat brain by ammonium sulfate fractionation followed by Q-Sepharose
T1 sequence (Q02293 whole entry, one chain of several): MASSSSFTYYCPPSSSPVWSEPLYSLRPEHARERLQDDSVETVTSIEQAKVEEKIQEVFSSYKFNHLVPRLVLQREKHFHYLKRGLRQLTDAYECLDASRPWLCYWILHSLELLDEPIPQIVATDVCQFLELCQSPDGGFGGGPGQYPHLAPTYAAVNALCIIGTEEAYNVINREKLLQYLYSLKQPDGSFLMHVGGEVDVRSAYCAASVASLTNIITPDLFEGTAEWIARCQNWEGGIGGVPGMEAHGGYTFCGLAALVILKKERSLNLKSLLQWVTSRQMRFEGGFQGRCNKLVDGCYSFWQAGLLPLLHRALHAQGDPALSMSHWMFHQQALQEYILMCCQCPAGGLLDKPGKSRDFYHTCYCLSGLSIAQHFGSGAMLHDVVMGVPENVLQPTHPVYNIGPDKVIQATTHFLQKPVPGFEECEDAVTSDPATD
In short: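 Transfer of [3H]farnesyl onto E. coli-expressed, His6-tagged Ras-CVLS was measured after 30 min at room temperature. Radiolabelled Ras was TCA-precipitated on ice and filter-harvested, and inhibition was expressed as percent of DMSO control.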

[2] = system: T24-BAG4 human bladder carcinoma cells expressing an activated H-ras gene; test: Cell Mat Assay: tumor cell colony inhibition (tIC50); assay type: cell-based; conditions: inhibition of tumor cell growth
In short: (§1)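 Serial compound dilutions added 24 h after planting T24-BAG4 cells onto a mat of normal cells, then 14 d colony growth; monolayers glutaraldehyde-fixed and tumor cells X-Gal stained. tIC50 and mIC50 from microscope counts of colonies, cells per colony and mat cell density.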

[3] = biological target: T2, geranylgeranyl protein transferase (GGPT) I (Rattus norvegicus, UniProt P53610+Q04631); test: Inhibition of geranylgeranyl protein transferase I (Ras-CVLL as acceptor); assay type: biochemical; conditions: for IC50: enzyme inhibition
T2 construct: were partially purified from rat brain by ammonium sulfate fractionation followed by Q-Sepharose
T2 sequence (P53610 whole entry, one chain of several): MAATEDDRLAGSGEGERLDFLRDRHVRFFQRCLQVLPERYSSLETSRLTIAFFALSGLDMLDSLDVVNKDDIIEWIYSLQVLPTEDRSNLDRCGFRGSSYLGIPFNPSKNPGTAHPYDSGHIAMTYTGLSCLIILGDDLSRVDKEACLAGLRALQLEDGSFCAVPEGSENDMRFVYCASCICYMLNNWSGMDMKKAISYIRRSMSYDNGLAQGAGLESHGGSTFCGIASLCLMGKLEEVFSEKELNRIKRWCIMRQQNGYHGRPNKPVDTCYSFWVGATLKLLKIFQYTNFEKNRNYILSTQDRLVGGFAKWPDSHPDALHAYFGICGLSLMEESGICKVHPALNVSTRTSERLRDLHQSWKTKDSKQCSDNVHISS
Excerpt: 1. In vitro enzyme assays: Inhibition of farnesyl protein transferase and geranylgeranyl protein transferase.
Both farnesyl protein transferase (FPT) and geranylgeranyl protein transferase (GGPT) I were partially purified from rat brain by ammonium sulfate fractionation followed by Q-Sepharose (Pharmacia, Inc.) anion exchange chromatography essentially as described by Yokoyama et al (Yokoyama, K., et al., (1991), A protein geranylgeranyltransferase from bovine brain: Implications for protein prenylation specificity, Proc. Natl. Acad. Sci USA 88: 5302-5306, the disclosure of which is incorporated herein by reference thereto). Human farnesyl protein transferase was also expressed in E. coli, using cDNA clones encoding both the α and β subunits. The methods used were similar to those published (Omer, C. et al., (1993), Characterization of recombinant human farnesyl protein transferase: Cloning, expression, farnesyl diphosphate binding, and functional homology with yeast prenyl-protein transferases, Biochemistry 32:5167-5176). Human farnesyl protein transferase was partially-purified from the soluble protein fraction of E. coli as described above. […] Two forms of val^12-Ha-Ras protein were prepared as substrates for these enzymes, differing in their carboxy terminal sequence. One form terminated in cysteine-valine-leucine-serine (Ras-CVLS) the other in cystein-valine-leucine-leucine (Ras-CVLL). Ras-CVLS is a substrate for the farnesyl protein transferase while Ras-CVLL is a substrate for geranylgeranyl protein transferase I. The cDNAs encoding these proteins were constructed so that the proteins contain an amino-terminal extension of 6 histidine residues. Both proteins were expressed in Escherichia coli and purified using metal chelate affinity chromatography. The radiolabelled isoprenyl pyrophosphate substrates, [^3H]farnesyl pyrophosphate and [3H]geranylgeranyl pyrophosphate, were purchased from DuPont/New England Nuclear.
The geranylgeranyl protein transferase I assay was essentially identical to the farnesyl protein transferase assay described above, with two exceptions: [^3H]geranylgeranylpyrophosphate replaced farnesyl pyrophosphate as the isoprenoid donor and Ras-CVLL was the protein acceptor.

[4] = system: Normal human HEPM fibroblasts; test: Cell Mat Assay: density of mat cells (mIC50); assay type: cell-based
In short: as §1

[5] = Ras-CVLS farnesylation, partially purified rat brain FPT

Question: Which results are given for O=C(Nc1cccnc1)N1CCN(C2c3ccc(Cl)cc3CCc3cc(Br)cnc32)CC1 (centres unmarked) [Example 354]?
Answer: IC50 [1, 5]: 0.21 µM; IC50 ([2]; Homo sapiens): 6.25 µM; IC50 [3]: 1000 µM; IC50 ([4]; Homo sapiens, Fibroblast): ≥ 25 µM

Question: For O=C(Cc1cc[n+]([O-])cc1)N1CCC(C2c3ccc(Cl)cc3CCc3cc(Br)cnc32)CC1 (centres unmarked) [Example 400-F], which IC50 [1, 5] is on record?
Answer: Its IC50 is 0.036 µM.

Question: And the IC50 ([1]; enzyme inhibition)?
Answer: The IC50 was 0.036 µM.

Question: What about the IC50 ([2]; Homo sapiens) of the same compound?
Answer: Its IC50 is < 1.6 µM.

Question: And the “GGPT inhibition at the concentration in parentheses” value (shortened to “GGPT inhibition”) ([3]; (36) μM)?
Answer: Its value is 0 (36).

Question: And the IC50 ([4]; Homo sapiens, Fibroblast)?
Answer: Its IC50 is > 25 µM.

Question: How did the IC50 [1, 5] turn out when O=C(Cc1ccncc1)N1CCC(=C2c3ccc(Br)cc3CCc3cccnc32)CC1 [Example 181] was run?
Answer: The IC50 was 0.23 µM.

Question: And the IC50 [3]?
Answer: Its IC50 is > 42 µM.

Question: Which results are given for O=C(Cc1cc[n+]([O-])cc1)N1CCC(=C2c3ccc(Cl)cc3CCc3cc(I)cnc32)CC1 [Example 401]?
Answer: IC50 [1, 5]: 0.063 µM and 0.08 µM; IC50 ([1]; enzyme inhibition): 0.063 µM and 0.08 µM; IC50 ([2]; Homo sapiens): < 1.6 µM; GGPT inhibition at the concentration in parentheses ([3]; (34) μM): 7 (34); IC50 [3]: 1000 µM; IC50 ([4]; Homo sapiens, Fibroblast): > 25 µM

Question: For O=C(c1ccc(O)c(O)c1)N1CCC(=C2c3ccc(Cl)cc3CCc3cccnc32)CC1 [Example 8], which IC50 [1, 5] is on record?
Answer: The IC50 was 2.3 µM.

Question: And the IC50 ([1]; enzyme inhibition)?
Answer: Its IC50 is 2.3 µM.

Question: And the IC50 [3]?
Answer: Its IC50 is 42 µM.

Question: Which results are given for O=C(CN1C(=O)c2ccccc2C1=O)N1CCN(C2c3ccc(Cl)cc3CCc3cccnc32)CC1 (centres unmarked) [Example 76]?
Answer: IC50 ([2]; Homo sapiens): > 50 µM; IC50 [3]: > 50 µM; IC50 ([4]; Homo sapiens, Fibroblast): > 50 µM

Question: What does the source list for O=C(Cc1cc[n+]([O-])cc1)N1CCC(=C2c3ccc(Cl)cc3CCc3cc(Cl)cnc32)CC1 [Example 411-W]?
Answer: IC50 ([1]; enzyme inhibition): 0.16 µM and 0.17 µM; GGPT inhibition at the concentration in parentheses ([3]; (42) μM): 3 (42)

Question: With O=C(Cc1ccncc1)N1CCC(=C2c3ccc(Cl)cc3CCc3cc(I)cnc32)CC1 [Example 400] as the compound, how does the IC50 [1, 5] read?
Answer: Its IC50 is 0.068 µM.

Question: And the IC50 ([1]; enzyme inhibition)?
Answer: Its IC50 is 0.068 µM.

Question: And the IC50 ([2]; Homo sapiens)?
Answer: The IC50 was 1.6 µM.

Question: What about the “GGPT inhibition” value ([3]; (36) μM) of the same compound?
Answer: Its value is 29 (36).

Question: What about the IC50 ([4]; Homo sapiens, Fibroblast) of the same compound?
Answer: The IC50 was > 25 µM.

Question: For O=C(Cc1ccncc1)N1CCC(=C2c3ccc(Cl)cc3CCc3cc(Br)cnc32)CC1 [Example 246], which IC50 [1, 5] is on record?
Answer: Its IC50 is 0.06 µM.

Question: What about the IC50 [3] of the same compound?
Answer: Its IC50 is > 40 µM.

Question: What about the IC50 ([4]; Homo sapiens, Fibroblast) of the same compound?
Answer: The IC50 was 50 µM.

Question: And the IC50 ([4]; listed as 246 (5.121))?
Answer: Its IC50 is > 50 µM.

Question: Which IC50 [1, 5] does the source give for CC(C)(C)c1cnc2c(c1)CCc1cc(Cl)ccc1C2=C1CCN(C(=O)Cc2cccnc2)CC1 [Example 304] here?
Answer: Its IC50 is 2.63 µM.

Question: What about the IC50 [3] of the same compound?
Answer: Its IC50 is > 40 µM.

Question: And the IC50 [4]?
Answer: Its IC50 is > 50 µM.

Question: With O=C(Cc1ccncc1)N1CCC(C2c3ccc(Cl)cc3C(=NO)Cc3cccnc32)CC1 (centres unmarked) [Example 419] as the compound, how does the IC50 ([1]; enzyme inhibition) read?
Answer: Its IC50 is < 0.12 µM.

Question: What about the “GGPT inhibition” value ([3]; (41) μM) of the same compound?
Answer: Its value is 0 (41).

Question: Which results are given for CN1CCC(CC(=O)N2CCC(C3c4ccc(Cl)cc4CCc4cc(Br)cnc43)CC2)CC1 (centres unmarked) [Example 400-J]?
Answer: IC50 [1, 5]: 0.14 µM; IC50 ([1]; enzyme inhibition): 0.14 µM; GGPT inhibition at the concentration in parentheses ([3]; (36) μM): 6 (36); IC50 [3]: 1000 µM

Question: With CO[C@@](C(=O)N1CCC(=C2c3ccc(Cl)cc3CCc3cccnc32)CC1)(c1ccccc1)C(F)(F)F [Example 290] as the compound, how does the IC50 [1, 5] read?
Answer: Its IC50 is 3.8 µM and 2.55 µM.

Question: What about the IC50 ([2]; Homo sapiens) of the same compound?
Answer: The IC50 was 12.5 µM.

Question: What about the IC50 [2] of the same compound?
Answer: Its IC50 is 6.25 µM and 8 µM.

Question: What about the IC50 [3] of the same compound?
Answer: The IC50 was > 38 µM.

Question: And the IC50 ([4]; Homo sapiens, Fibroblast)?
Answer: The IC50 was > 50 µM.

Question: Which results are given for O=C(Cc1ccncc1)N1CCC(C2c3ccc(Cl)cc3CCc3cc(Br)cnc32)CC1 (centres unmarked) [Example 400-E]?
Answer: IC50 [1, 5]: 0.04 µM; IC50 ([1]; enzyme inhibition): 0.04 µM; IC50 ([2]; Homo sapiens): < 1.6 µM; GGPT inhibition at the concentration in parentheses ([3]; (38) μM): 30 (38); IC50 ([4]; Homo sapiens, Fibroblast): 18 µM

Question: CC1(C2CCN(C(=O)Cc3ccncc3)CC2)c2ccc(Cl)cc2CCc2cc(Br)cnc21 (centres unmarked) [Example 410-A] was tested. Which IC50 [1, 5] did it give?
Answer: Its IC50 is 0.086 µM.

Question: What about the IC50 ([1]; enzyme inhibition) of the same compound?
Answer: The IC50 was 0.086 µM.

Question: What about the “GGPT inhibition” value ([3]; (35) μM) of the same compound?
Answer: The value was 47 (35).

Question: What about the IC50 [3] of the same compound?
Answer: Its IC50 is ~40 µM.

Question: What does the source list for CN1CCC(CC(=O)N2CCC(C3c4ccc(Cl)cc4C=Cc4cc(Br)cnc43)CC2)CC1 (centres unmarked) [Example 400-B]?
Answer: IC50 [1, 5]: 0.068 µM; IC50 ([1]; enzyme inhibition): 0.068 µM; IC50 ([2]; Homo sapiens): < 1.6 µM; IC50 [3]: > 38 µM

Question: How did the IC50 [1, 5] turn out when CC1(C2CCN(C(=O)Cc3cc[n+]([O-])cc3)CC2)c2ccc(Cl)cc2CCc2cc(Br)cnc21 (centres unmarked) [Example 410-B] was run?
Answer: The IC50 was 0.084 µM.

Question: What about the IC50 ([1]; enzyme inhibition) of the same compound?
Answer: Its IC50 is 0.084 µM.

Question: And the “GGPT inhibition” value ([3]; (35) μM)?
Answer: The value was 21 (35).

Question: What about the IC50 [3] of the same compound?
Answer: The IC50 was 1000 µM.

Question: Which IC50 [1, 5] does the source give for O=C(Cc1ccncc1)N1CCC(=C2c3ccc(Cl)cc3CCc3cc(Cl)cnc32)CC1 [Example 180] here?
Answer: The IC50 was 0.04 µM.

Question: What about the IC50 ([2]; Homo sapiens) of the same compound?
Answer: Its IC50 is 12.5 µM.

Question: What about the IC50 [2] of the same compound?
Answer: The IC50 was 18 µM.

Question: What about the IC50 [3] of the same compound?
Answer: Its IC50 is > 42 µM.

Question: What about the IC50 [4] of the same compound?
Answer: The IC50 was > 50 µM.

Question: What about the IC50 ([4]; Homo sapiens, Fibroblast) of the same compound?
Answer: Its IC50 is 50 µM.
